According to PubChem BioAssay (NCI):
“And” between values parts separate entries of the source, which are not always exact repeats. Identical values can stand only once.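 Following 48 hours of exposure in 96-well plates, responses at five concentrations were used to interpolate endpoints linearly. GI50 marks 50% less growth. TGI: concentration producing complete growth inhibition.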

Tests used:
Assay in all cases: NCI-60 cell line screen, 48 h
OVCAR-3 ovarian = test system: OVCAR-3 ovarian
SF-268 CNS = test system: SF-268 CNS
MOLT-4 leukemia = test system: MOLT-4 leukemia
K-562 leukemia = test system: K-562 leukemia
UACC-62 melanoma = test system: UACC-62 melanoma
PC-3 prostate = test system: PC-3 prostate
ACHN renal = test system: ACHN renal
SNB-75 CNS = test system: SNB-75 CNS
RPMI-8226 leukemia = test system: RPMI-8226 leukemia
NCI-H226 lung = test system: NCI-H226 lung

Structure (SMILES) | GI50 (OVCAR-3 ovarian) | TGI (OVCAR-3 ovarian) | GI50 (SF-268 CNS) | TGI (SF-268 CNS) | GI50 (MOLT-4 leukemia) | TGI (MOLT-4 leukemia) | GI50 (K-562 leukemia) | TGI (K-562 leukemia) | GI50 (UACC-62 melanoma) | TGI (UACC-62 melanoma) | GI50 (PC-3 prostate) | TGI (PC-3 prostate) | GI50 (ACHN renal) | TGI (ACHN renal) | GI50 (SNB-75 CNS) | TGI (SNB-75 CNS) | GI50 (RPMI-8226 leukemia) | TGI (RPMI-8226 leukemia) | GI50 (NCI-H226 lung) | TGI (NCI-H226 lung)
C=CC(=O)N1CC2(CC(n3nc(-c4ccc5c(cnn5C)c4)c(-c4c(Cl)c(C)cc5[nH]ncc45)c3C)C2)C1 | 1.98 µM | 4.18 µM | 4.5 µM | 20 µM | 1.74 µM | 9 µM | 2.78 µM | > 100 µM | 1.94 µM | 4.04 µM | 3.59 µM | 22.8 µM | 2.01 µM | 4.81 µM | 2.57 µM | 11.9 µM | 2.13 µM | 6.72 µM | 2.63 µM | 8.75 µM
COC(=O)[C@H]1CCCN1C(=O)[C@H]1CCCN1C(=O)[C@H](Cc1c[nH]c2ccccc12)NC(=S)Nc1cc(C(F)(F)F)cc(C(F)(F)F)c1 | 8.43 µM | > 100 µM | 8.2 µM | > 100 µM | 4.88 µM | > 100 µM | 5.71 µM | > 100 µM | 6.14 µM | > 100 µM | 3.47 µM | > 100 µM | 4.12 µM | > 100 µM | 1.45 µM | > 100 µM | 5.24 µM | > 100 µM | 9.63 µM | > 100 µM
C=C1C(=O)OC2/C=C(/C)C(OC(C)=O)C/C=C(\C)C(OC(=O)C3(C)OC3C)C(O)C12 (stereo not drawn) | – | > 100 µM | – | > 100 µM | – | > 100 µM | – | > 100 µM | – | > 100 µM | – | > 100 µM | – | > 100 µM | – | > 100 µM | – | > 100 µM | – | > 100 µM
CCN(CC)Cc1cc2[nH]c3c4ccc(Cl)cc4ncc3c2cc1OC | 1.89 µM and 2.02 µM | 3.78 µM and 4.29 µM | 3.33 µM and 2.9 µM | 10 µM and 9.2 µM | 2.24 µM and 2.56 µM | > 21.8 µM and 6.8 µM | 3.39 µM and 1.89 µM | > 20.5 µM and 4.28 µM | 15.5 µM and 1.81 µM | 29.4 µM and 3.46 µM | 3.18 µM and 1.99 µM | 16 µM and 6.8 µM | 5.68 µM and 1.98 µM | 16.3 µM and 4.98 µM | 1.61 µM and 1.81 µM | 3.92 µM and 3.88 µM | 1.26 µM and 1.87 µM | 5.09 µM and 4.56 µM | 14.4 µM and 15.1 µM | 28.8 µM and 28.5 µM
CC[C@H](C)[C@H](NC(=O)[C@H]1CCCCN1C)C(=O)N(C)[C@H](C[C@@H](OC(C)=O)c1nc(C(=O)N[C@@H](Cc2ccccc2)C[C@H](C)C(=O)O)cs1)C(C)C | 0.000234 µM and < 0.00165 µM | 0.0119 µM and < 0.00165 µM | 0.000834 µM and 0.00165 µM | > 16.5 µM | 0.00376 µM and 0.00165 µM | > 16.5 µM | 0.000327 µM and 0.00165 µM | > 16.5 µM | – | > 16.5 µM | 0.000339 µM and 0.00165 µM | > 16.5 µM | 0.00481 µM and 0.00165 µM | > 16.5 µM | 0.000568 µM and 0.00165 µM | > 16.5 µM | 0.000264 µM and 0.00165 µM | 6.56 µM | 0.0113 µM and < 0.00165 µM | < 0.00165 µM
O=C1/C=C/[C@@H](O)[C@@H]2C[C@@H](O)C[C@H]2/C=C/CCC[C@H](C(F)(F)F)O1 | 0.103 µM | 0.464 µM | 0.403 µM | > 77.8 µM | 0.174 µM | 0.625 µM | 0.336 µM | > 69.1 µM | 0.223 µM | > 35.4 µM | 0.502 µM | > 100 µM | 0.197 µM | – | 0.0603 µM | > 100 µM | 0.274 µM | 1.04 µM | 0.0687 µM | 0.68 µM
N=c1c2c(=N)n3c(nc2nc2n1-c1ccccc1Sc1ccccc1-2)sc1cc(Cl)ccc13 | 1.12 µM | 4.24 µM | 3.42 µM | > 100 µM | 2.33 µM | > 100 µM | 1.62 µM | > 100 µM | 1.16 µM | 9.44 µM | 2.64 µM | > 100 µM | 2.18 µM | > 100 µM | 1.83 µM | 65.4 µM | 0.988 µM | > 100 µM | 1.73 µM | 16.8 µM
CO[C@H]1C[C@@H]2CC[C@@H](C)[C@@](O)(O2)C(=O)C(=O)N2CCCC[C@H]2C(=O)O[C@H]([C@H](C)C[C@@H]2CC[C@@H](OCCO)[C@H](OC)C2)CC(=O)[C@H](C)C=C(C)[C@@H](O)[C@@H](OC)C(=O)[C@H](C)C[C@H](C)/C=C/C=C/C=C1C | < 0.01 µM | 16.7 µM | 0.269 µM | 21.1 µM | – | 20.3 µM | 2.41 µM | 31.4 µM | 0.342 µM | 19.9 µM | < 0.01 µM | 16.7 µM | < 0.01 µM | 18.8 µM | < 0.01 µM | 14.1 µM | < 0.01 µM | 14.1 µM | – | 23.5 µM
CC(=O)[O][Hg][c]1c(C)c(C)cc(C)c1C | 1.36 µM | 2.71 µM | 0.825 µM | 2.25 µM | 0.242 µM | 4.54 µM | 0.743 µM | 11 µM | 1.69 µM | 4.59 µM | 1.73 µM | 4.5 µM | 3.71 µM | 8.18 µM | 1.48 µM | 2.99 µM | 1.6 µM | 6.11 µM | 2.05 µM | 3.87 µM
O=[N+]([O-])c1cccc(C2CC(c3ccccc3)=Nc3ccccc3S2)c1 (stereo not drawn) | 13.3 µM | 26.1 µM | 13.1 µM | 26.9 µM | 7.44 µM | > 100 µM | 3.76 µM | > 100 µM | 12.1 µM | 44.1 µM | 10.1 µM | 28.7 µM | 13.9 µM | 28.5 µM | 9.53 µM | > 100 µM | 3.41 µM | 17.3 µM | 72.4 µM | > 100 µM
CCCCCCCCCCCCCC[C@@H](O)[C@H]1CC[C@H]([C@H]2CC[C@H]([C@H](O)CCCCCC[C@@H](O)CC3=C[C@H](C)OC3=O)O2)O1 | 1.53 µM | 3.21 µM and > 25 µM | 1.69 µM | 5.04 µM and > 25 µM | 2.01 µM | 8.81 µM and > 25 µM | 1.47 µM | > 25 µM | > 25 µM | 4.5 µM and > 25 µM | 2.13 µM | 7.31 µM and > 25 µM | 1.02 µM | – | 1.7 µM | 4.95 µM and > 25 µM | 2.16 µM | > 25 µM | 1.71 µM | 5.04 µM and > 25 µM
COc1cc2c(=O)[nH]c3cc([N+](=O)[O-])ccc3c2cc1[N+](=O)[O-] | 3.85 µM | 31.7 µM | 4.42 µM | 88 µM | 3.9 µM | > 100 µM | 5.97 µM | > 100 µM | 4.55 µM | > 100 µM | 6.07 µM | > 100 µM | 3.71 µM | 91.4 µM | 2.08 µM | 20 µM | – | – | 3.25 µM | 39.2 µM
